Test results reported in patent publication EP4763206A1, “AGENT FOR SUPPRESSING AGGREGATION OF TDP-43, AGENT FOR SUPPRESSING CELL DEATH OF CELLS IN WHICH TDP-43 IS OVEREXPRESSED, AND AGENT FOR PREVENTING OR TREATING DISEASES ASSOCIATED WITH AGGREGATION OF TDP-43” (Socium Inc., priority 2023, dated 2025).
pEC50: −log10 of the molar value. “Also recorded” adds a separate entry of the source. Like-named read-outs stand apart in the source and are kept apart here.

Experiments:
Neuro2a cells [1] = assay: Suppression of cell death in TDP-43-transfected Neuro2a cells (Reference Example 2); assay type: cell-based, Mouse; details: 10 to 10,000 nmol/L added 5 hours after transfection; evaluated 7 days after transfection (Figures 3, 4)
Experimental: Neuro2a cells were seeded on a dish. On the first day after seeding, differentiation into neurons was initiated. On the fourth day after seeding, cells were transfected with the TDP-43 gene. […] In addition, as a control, 10 nmol/L, 50 nmol/L, 100 nmol/L, 500 nmol/L, 1,000 nmol/L, 5,000 nmol/L, or 10,000 nmol/L of ropinirole was added to a culture medium.
The proportion of dead cells was evaluated 7 days after the cells were transfected with the TDP-43 gene.

TDP-43 [2] = assay: Soluble/insoluble TDP-43 fractions in TDP-43-transfected Neuro2a cells, western blot (Reference Example 3); assay type: cell-based, Mouse; details: 10 µmol/L added 6 hours after transfection; for number of soluble fractions versus insoluble fractions of TDP-43: cultured for 12 hours (Figure 5); for proportion of insoluble fractions based on total of soluble and insoluble fractions of TDP-43: cultured for 12 hours (Figure 6)
Experimental: Mouse neuroblastoma (Neuro2a) cells were seeded on a dish. The Neuro2a cells were cultured in a culture medium containing DMEM+10% FBS at 37°C in the presence of 5% CO2. On the first day after seeding, differentiation into neurons was initiated. Differentiation into neurons was performed in a culture medium containing DMEM+2% FBS+20 µmol/L retinoic acid. On the fourth day after seeding, cells were transfected with synthesized TDP-43 mRNA by a lipofection method. Cells were sampled at 6 hours, 9 hours, 12 hours, 15 hours, 18 hours, and 21 hours after transfection. […] For sampling, cells were lysed in an RIPA buffer and centrifuged at 22,000×g for 30 minutes at 4°C, the supernatant was used as the soluble fraction, the precipitate was used as the insoluble fraction, and equal volumes of a 2×SDS sample buffer were added to the respective fractions and heated at 95°C for 5 minutes to prepare electrophoresis samples. The electrophoresis samples were subjected to electrophoresis using a polyacrylamide gel, TDP-43 was then transferred to a PVDF membrane. TDP-43 was detected through chemiluminescence using anti-TDP-43 antibodies as primary antibodies and HRP-conjugated anti-rabbit antibodies as secondary antibodies. […] The insoluble fractions of TDP-43 indicate the aggregation of TDP-43.
Neuro2a cells were seeded on a dish. On the first day after seeding, differentiation into neurons was initiated. On the fourth day after seeding, cells were transfected with the TDP-43 gene.

TDP-43 [3] = assay: Soluble/insoluble TDP-43 fractions in motor neurons derived from iPS cells of ALS patients, western blot (Reference Example 4); assay type: cell-based, human; details: 10 µmol/L; for bands for insoluble fractions of TDP-43: cultured for 20 days (Figure 7); for average proportion of insoluble fractions of TDP-43: cultured for 20 days, three experiments, untreated ALS about 46.1%, healthy about 7.4%
TDP-43 [4] = assay: Soluble/insoluble TDP-43 fractions in motor neurons derived from iPS cells of healthy subjects, western blot (Reference Example 4); assay type: cell-based, human; details: 10 µmol/L, cultured for 20 days (Figure 7)
Experimental: 100 µL of an EHS-gel basement membrane matrix (commercially available from FUJIFILM Wako Pure Chemical Corporation) was added to 12.5 mL of DMEM (Dulbecco's Modified Eagle Medium, commercially available from FUJIFILM Wako Pure Chemical Corporation) and mixed, and the mixture was added to a 24-well plate at 600 µL per well. The plate was left at room temperature for 2 hours, and the solution was then removed from the wells. Next, 600 µL of DMEM was added to each well, and the plate was left at room temperature for 2 hours.
Motor neurons derived from iPS cells of healthy subjects and motor neurons derived from iPS cells of ALS patients were obtained from iXCells Biotechnologies. The motor neurons were quickly thawed in a thermostatic oven at 37°C and suspended in a motor neuron maintenance culture medium (iXCells Biotechnologies). […]
The soluble protein fractions and the insoluble protein fractions were subjected to SDS-PAGE, and the proteins were transferred to a PVDF membrane. […] Next, the PVDF membrane was washed three times with a buffer solution, 1 mL of a luminescence reagent (ImmunoStar LD, commercially available from FUJIFILM Wako Pure Chemical Corporation) was then used to induce luminescence from the labeled secondary antibodies, and the PVDF membrane was imaged.

Neuro2a cells [5] = assay: Cell death suppression by D-cycloserine combined with edaravone in TDP-43-transfected Neuro2a cells (Example 1); assay type: cell-based; details: Mus musculus, N2a
Experimental: Neuro2a cells were seeded on a dish. On the first day after seeding, differentiation into neurons was initiated. On the fourth day after seeding, cells were transfected with the TDP-43 gene. […] The proportion of dead cells was evaluated 7 days after the cells were transfected with the TDP-43 gene. […] Here, the relative viability indicates the proportion of the number of viable cells overexpressing TDP-43 based on 100% of the number of viable cells not overexpressing TDP-43. […] The CI was calculated using the following formula. […] CI=1 indicates an additive effect, CI>1 indicates an antagonistic effect, and CI<1 indicates a synergistic effect.

[6] = Reported human pharmacokinetics of D-cycloserine; assay type: in vivo, humans; details: estimated; 15 mg orally administered twice daily
[7] = cited from earlier work
[8] = cited from earlier work; remark: listed apart in the source

N[C@@H]1CONC1=O [D-cycloserine, (4R)-4-Amino-1,2-oxazolidin-3-one]
cell death in cells transfected with the TDP-43 gene (Neuro2a cells [1]): cell death was inhibited; also recorded: exhibited an effect of inhibiting cell death in a concentration-dependent manner
number of soluble fractions versus insoluble fractions of TDP-43 (TDP-43 [2]): the number of soluble fractions of TDP-43 was larger than the number of insoluble fractions of TDP-43
proportion of insoluble fractions based on total of soluble and insoluble fractions of TDP-43 (TDP-43 [2]): less than half
bands for insoluble fractions of TDP-43 (TDP-43 [3]): bands for insoluble fractions were unclear
average proportion of insoluble fractions of TDP-43 (TDP-43 [3]): about 17.4%
bands for insoluble fractions of TDP-43 (TDP-43 [4]): bands for insoluble fractions were unclear
pEC50 (Neuro2a cells [5]; read-out: EC50 of the cell death suppressory effect of D-cycloserine, at 0 nmol/L of edaravone): 6.82
pEC50 (Neuro2a cells [5]; read-out: EC50 of the cell death suppressory effect of D-cycloserine, at 10 nmol/L of edaravone): 6.83
pEC50 (Neuro2a cells [5]; read-out: EC50 of the cell death suppressory effect of D-cycloserine, at 30 nmol/L of edaravone): 6.87
pEC50 (Neuro2a cells [5]; read-out: EC50 of the cell death suppressory effect of D-cycloserine, at 100 nmol/L of edaravone): 6.93
pEC50 (Neuro2a cells [5]; read-out: EC50 of the cell death suppressory effect of D-cycloserine, at 300 nmol/L of edaravone): 6.97
pEC50 (Neuro2a cells [5]; read-out: EC50 of the cell death suppressory effect of D-cycloserine, at 1,000 nmol/L of edaravone): 7.06
trough value [6]: > 128 nmol/L
Cmax ([7]; 15 mg orally administered to humans, read-out: maximum blood concentration (Cmax)): ~5.6 µM
half-life ([7]; in vivo): about 10 hours
side effects ([8]; 150 mg administered to humans): headaches
side effects ([8]; 250 mg administered to humans to treat tuberculosis): serious side effects such as epileptiform seizure and mental confusion

N[C@H]1CONC1=O [L-cycloserine, (4S)-4-amino-1,2-oxazolidin-3-one]
cell death in cells transfected with the TDP-43 gene (Neuro2a cells [1]): exhibited an effect of inhibiting cell death in a concentration-dependent manner
number of soluble fractions versus insoluble fractions of TDP-43 (TDP-43 [2]): the number of soluble fractions of TDP-43 was larger than the number of insoluble fractions of TDP-43
proportion of insoluble fractions based on total of soluble and insoluble fractions of TDP-43 (TDP-43 [2]): less than half

CCCN(CCC)CCc1cccc2c1CC(=O)N2 [ropinirole]
bands for insoluble fractions of TDP-43 (TDP-43 [3]): bands for insoluble fractions were unclear
average proportion of insoluble fractions of TDP-43 (TDP-43 [3]): about 19.3%
bands for insoluble fractions of TDP-43 (TDP-43 [4]): bands for insoluble fractions were unclear
